Our source for the IC50 values is patent US7074789B2, “Kinase inhibitors” (Amgen Inc., priority 1999, dated 2006).

Structures are written as SMILES. Where “and” joins values, the source holds several entries; their conditions need not be identical. Identical values can stand only once.

Assay type in all cases: biochemical
Assay [1] has as its target T1, EGFR (Homo sapiens, UniProt P00533).
T1 construct: Kinases are expressed as either kinase domains or full length constructs; made in house
In words: Kinase inhibition assay (33P transfer), EGFR. The settings on record: Table 2, kinase inhibition class; read-out: EGFR-1. In a few lines:
(§1)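 Radiometric format: recombinant tagged kinase (catalytic domain or whole protein, sometimes combined with regulatory polypeptides) phosphorylates immobilised poly(Glu,Tyr) 4:1 or poly(Arg,Ser) 3:1 using [33P]ATP. Wells are washed in 0.5% phosphoric acid, then counted. IC50 is taken where substrate labelling falls by half.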

The target in assay [2] is T2, Itk (Homo sapiens, UniProt Q08881).
T2 construct: Kinases are expressed as either kinase domains or full length constructs; made in house
T2 sequence (Q08881 1-620): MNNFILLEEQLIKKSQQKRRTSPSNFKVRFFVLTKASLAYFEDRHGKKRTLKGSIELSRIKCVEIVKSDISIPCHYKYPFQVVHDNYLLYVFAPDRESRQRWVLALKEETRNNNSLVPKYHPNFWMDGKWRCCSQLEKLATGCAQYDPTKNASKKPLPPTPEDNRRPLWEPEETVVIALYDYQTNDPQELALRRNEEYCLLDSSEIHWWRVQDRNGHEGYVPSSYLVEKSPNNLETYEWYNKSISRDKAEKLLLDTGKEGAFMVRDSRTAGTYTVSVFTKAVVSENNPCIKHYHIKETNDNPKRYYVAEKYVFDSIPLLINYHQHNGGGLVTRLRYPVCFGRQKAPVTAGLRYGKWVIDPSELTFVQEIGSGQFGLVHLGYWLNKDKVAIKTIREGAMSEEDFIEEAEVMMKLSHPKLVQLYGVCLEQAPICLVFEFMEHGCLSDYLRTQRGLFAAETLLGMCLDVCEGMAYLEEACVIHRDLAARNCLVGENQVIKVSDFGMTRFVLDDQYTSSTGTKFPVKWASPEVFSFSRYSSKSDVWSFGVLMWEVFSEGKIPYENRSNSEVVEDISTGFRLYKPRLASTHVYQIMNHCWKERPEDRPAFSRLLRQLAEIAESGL
In words: Kinase inhibition assay (33P transfer), Itk. Particulars: read-out: Itk-1. The method in brief:
as §1

Assay [3] has as its target T3, IGFR-1 (Homo sapiens, UniProt P08069).
T3 construct: Kinases are expressed as either kinase domains or full length constructs; made in house
In words: Kinase inhibition assay, IGFR-1 (Table 2). The settings on record: Table 2, kinase inhibition class.

For assay [4], the target named is T4, Lck (Homo sapiens, UniProt P06239).
T4 construct: Kinases are expressed as either kinase domains or full length constructs; made in house
T4 sequence (P06239 whole entry, species assumed, the tested form may be a part): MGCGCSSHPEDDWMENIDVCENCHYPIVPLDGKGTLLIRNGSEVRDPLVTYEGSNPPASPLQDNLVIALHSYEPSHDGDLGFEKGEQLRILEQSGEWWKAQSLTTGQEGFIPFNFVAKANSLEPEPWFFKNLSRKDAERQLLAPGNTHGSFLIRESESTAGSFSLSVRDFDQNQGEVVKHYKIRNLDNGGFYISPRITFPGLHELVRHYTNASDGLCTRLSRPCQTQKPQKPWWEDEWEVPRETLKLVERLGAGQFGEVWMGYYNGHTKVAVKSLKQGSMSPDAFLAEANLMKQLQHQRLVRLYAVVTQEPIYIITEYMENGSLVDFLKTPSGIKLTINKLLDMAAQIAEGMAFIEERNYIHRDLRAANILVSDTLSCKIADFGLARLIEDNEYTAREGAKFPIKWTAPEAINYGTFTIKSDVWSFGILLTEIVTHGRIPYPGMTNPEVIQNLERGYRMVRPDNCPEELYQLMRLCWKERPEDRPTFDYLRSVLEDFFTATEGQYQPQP
As to the kind of experiment: Kinase inhibition assay (33P transfer), Lck. Particulars: read-out: Lck-1. In a few lines:
(§2)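 Kinase domains or full-length kinases, GST- or His-tagged and expressed in E. coli or baculovirus/High Five cells, transferred 33PO4 from ATP onto plate-bound poly(Glu,Tyr) 4:1 or poly(Arg,Ser) 3:1. After incubation, plates were washed with 0.5% phosphoric acid and counted by liquid scintillation.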

Assay [5] addresses T5, c-Met (Homo sapiens, UniProt P08581).
T5 construct: Kinases are expressed as either kinase domains or full length constructs; made in house
In words: Kinase inhibition assay (33P transfer), c-Met. Particulars: Table 2, kinase inhibition class; read-out: Met-1. In a few lines: as §1

The target in assay [6] is T6, AKT (Homo sapiens, UniProt Q9Y243).
T6 construct: Kinases are expressed as either kinase domains or full length constructs; made in house
T6 sequence (Q9Y243 whole entry, the tested form may be a part): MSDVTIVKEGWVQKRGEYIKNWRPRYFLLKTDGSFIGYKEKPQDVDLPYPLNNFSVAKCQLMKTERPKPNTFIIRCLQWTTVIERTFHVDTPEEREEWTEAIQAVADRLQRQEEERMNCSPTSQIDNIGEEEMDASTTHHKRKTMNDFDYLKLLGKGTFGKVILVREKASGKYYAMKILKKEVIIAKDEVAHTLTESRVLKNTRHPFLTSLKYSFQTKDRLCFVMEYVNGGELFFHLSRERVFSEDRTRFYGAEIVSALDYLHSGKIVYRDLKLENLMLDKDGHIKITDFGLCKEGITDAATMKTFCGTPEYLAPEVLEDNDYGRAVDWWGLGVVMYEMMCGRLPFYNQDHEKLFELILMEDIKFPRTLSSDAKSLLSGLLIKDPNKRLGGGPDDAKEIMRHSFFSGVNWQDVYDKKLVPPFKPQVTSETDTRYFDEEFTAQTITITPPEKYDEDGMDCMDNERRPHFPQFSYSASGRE
In words: Kinase inhibition assay (33P transfer), AKT. Particulars: Table 2, kinase inhibition class; read-out: AKT3-1. The method in brief: as §2

Assay [7] deals with T7, PDGFRB (Homo sapiens, UniProt P09619).
T7 construct: Kinases are expressed as either kinase domains or full length constructs; made in house
In words: Kinase inhibition assay (33P transfer), PDGFRB. The settings on record: read-out: PDGFRB-1.

For assay [8], the target named is T8, Zap-70 (Homo sapiens, UniProt P43403).
T8 construct: Kinases are expressed as either kinase domains or full length constructs; made in house
T8 sequence (P43403 1-619): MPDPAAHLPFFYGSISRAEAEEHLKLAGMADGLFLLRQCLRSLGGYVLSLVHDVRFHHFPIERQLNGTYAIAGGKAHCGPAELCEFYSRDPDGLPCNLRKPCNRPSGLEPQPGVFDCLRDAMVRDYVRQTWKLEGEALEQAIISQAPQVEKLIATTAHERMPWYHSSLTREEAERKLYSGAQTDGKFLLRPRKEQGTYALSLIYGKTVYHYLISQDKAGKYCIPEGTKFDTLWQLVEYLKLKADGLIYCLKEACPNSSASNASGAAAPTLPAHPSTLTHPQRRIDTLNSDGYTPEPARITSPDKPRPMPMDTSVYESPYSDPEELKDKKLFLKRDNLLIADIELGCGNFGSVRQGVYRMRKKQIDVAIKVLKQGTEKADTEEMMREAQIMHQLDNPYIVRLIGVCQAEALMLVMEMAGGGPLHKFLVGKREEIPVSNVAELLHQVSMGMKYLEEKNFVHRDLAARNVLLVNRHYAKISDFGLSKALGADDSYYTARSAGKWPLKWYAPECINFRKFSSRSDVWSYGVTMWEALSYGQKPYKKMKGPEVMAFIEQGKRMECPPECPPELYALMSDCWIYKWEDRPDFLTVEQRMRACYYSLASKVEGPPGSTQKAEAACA
In words: Kinase inhibition assay (33P transfer), Zap-70. Particulars: read-out: Zap-1. In a few lines: as §2

The target in assay [9] is T9, ErbB2 (Homo sapiens, UniProt P04626).
T9 construct: Kinases are expressed as either kinase domains or full length constructs; made in house
T9 sequence (P04626 23-1255, species assumed): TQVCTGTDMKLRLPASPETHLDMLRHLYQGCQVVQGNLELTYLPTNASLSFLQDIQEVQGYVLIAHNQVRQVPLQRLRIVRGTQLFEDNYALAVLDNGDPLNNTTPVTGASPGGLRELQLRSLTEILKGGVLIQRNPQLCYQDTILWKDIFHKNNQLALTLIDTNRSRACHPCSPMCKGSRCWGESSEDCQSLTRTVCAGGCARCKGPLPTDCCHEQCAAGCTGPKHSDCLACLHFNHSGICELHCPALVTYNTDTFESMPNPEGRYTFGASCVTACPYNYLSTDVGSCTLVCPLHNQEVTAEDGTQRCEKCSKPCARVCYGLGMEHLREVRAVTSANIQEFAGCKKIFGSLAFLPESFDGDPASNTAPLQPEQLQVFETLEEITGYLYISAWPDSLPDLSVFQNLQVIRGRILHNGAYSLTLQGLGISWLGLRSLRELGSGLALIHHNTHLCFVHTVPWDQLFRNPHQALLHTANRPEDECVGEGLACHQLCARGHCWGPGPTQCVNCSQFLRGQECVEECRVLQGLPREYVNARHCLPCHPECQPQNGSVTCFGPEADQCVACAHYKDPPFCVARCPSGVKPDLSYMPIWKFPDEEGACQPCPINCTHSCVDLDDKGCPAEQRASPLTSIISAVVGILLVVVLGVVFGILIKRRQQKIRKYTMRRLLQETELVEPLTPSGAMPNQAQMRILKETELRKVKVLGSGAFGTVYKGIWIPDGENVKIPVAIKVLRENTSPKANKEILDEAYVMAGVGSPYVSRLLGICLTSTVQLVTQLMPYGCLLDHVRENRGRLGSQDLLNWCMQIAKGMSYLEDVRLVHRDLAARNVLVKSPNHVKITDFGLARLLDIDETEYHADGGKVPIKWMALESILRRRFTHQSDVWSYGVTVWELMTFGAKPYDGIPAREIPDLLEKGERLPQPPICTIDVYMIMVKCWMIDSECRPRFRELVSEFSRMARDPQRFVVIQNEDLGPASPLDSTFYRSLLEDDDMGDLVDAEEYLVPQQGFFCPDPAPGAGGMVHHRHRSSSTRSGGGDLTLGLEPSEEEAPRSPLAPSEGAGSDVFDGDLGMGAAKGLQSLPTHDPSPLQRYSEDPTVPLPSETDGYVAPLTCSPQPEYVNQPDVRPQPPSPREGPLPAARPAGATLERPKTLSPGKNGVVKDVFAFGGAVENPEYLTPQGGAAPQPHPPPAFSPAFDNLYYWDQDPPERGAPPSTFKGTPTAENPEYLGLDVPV
In words: Kinase inhibition assay (33P transfer), ErbB2. Particulars: read-out: ErbB2-2. An excerpt:
The inhibitor compounds described herein are screened in the following manner. Kinases suitable for use in the following protocol to determine kinase activity of the compounds described herein include, -but are not limited to: Lck, Lyn, Src, Fyn, Syk, Zap-70, Itk, Tec, Btk, EGFR, ErbB2, Kdr, Flt-1, Flt-3, Tek, c-Met, InsR, and AKT.
Kinases are expressed as either kinase domains or full length constructs fused to glutathione S-transferase (GST) or polyHistidine tagged fusion proteins in either E. colior Baculovirus-High Five expression systems. They are purified to near homogeneity by affinity chromatography essentially as previously described (Lehr et al., 1996; Gish et al., 1995). In some instances, kinases are co-expressed or mixed with purified or partially purified regulatory polypeptides prior to measurement of activity.
Kinase activity and inhibition are measured essentially by established protocols (Braunwalder et al., 1996). Briefly, The transfer of ^33PO4 from ATP to the synthetic substrates poly(Glu, Tyr) 4:1 or poly(Arg, Ser) 3:1 attached to the bioactive surface of microtiter plates serves as the basis to evaluate enzyme activity. After an incubation period, the amount of phosphate transferred is measured by first washing the plate with 0.5% phosphoric acid, adding liquid scintillant, and then counting in a liquid scintillation detector. The IC50 is determined by the concentration of compound that causes a 50% reduction in the amount of […] incorporated onto the substrate bound to the plate.

In assay [10] the target is T10, Kdr (Homo sapiens, UniProt P35968).
T10 construct: Kinases are expressed as either kinase domains or full length constructs; made in house
T10 sequence (P35968 20-1356, species assumed): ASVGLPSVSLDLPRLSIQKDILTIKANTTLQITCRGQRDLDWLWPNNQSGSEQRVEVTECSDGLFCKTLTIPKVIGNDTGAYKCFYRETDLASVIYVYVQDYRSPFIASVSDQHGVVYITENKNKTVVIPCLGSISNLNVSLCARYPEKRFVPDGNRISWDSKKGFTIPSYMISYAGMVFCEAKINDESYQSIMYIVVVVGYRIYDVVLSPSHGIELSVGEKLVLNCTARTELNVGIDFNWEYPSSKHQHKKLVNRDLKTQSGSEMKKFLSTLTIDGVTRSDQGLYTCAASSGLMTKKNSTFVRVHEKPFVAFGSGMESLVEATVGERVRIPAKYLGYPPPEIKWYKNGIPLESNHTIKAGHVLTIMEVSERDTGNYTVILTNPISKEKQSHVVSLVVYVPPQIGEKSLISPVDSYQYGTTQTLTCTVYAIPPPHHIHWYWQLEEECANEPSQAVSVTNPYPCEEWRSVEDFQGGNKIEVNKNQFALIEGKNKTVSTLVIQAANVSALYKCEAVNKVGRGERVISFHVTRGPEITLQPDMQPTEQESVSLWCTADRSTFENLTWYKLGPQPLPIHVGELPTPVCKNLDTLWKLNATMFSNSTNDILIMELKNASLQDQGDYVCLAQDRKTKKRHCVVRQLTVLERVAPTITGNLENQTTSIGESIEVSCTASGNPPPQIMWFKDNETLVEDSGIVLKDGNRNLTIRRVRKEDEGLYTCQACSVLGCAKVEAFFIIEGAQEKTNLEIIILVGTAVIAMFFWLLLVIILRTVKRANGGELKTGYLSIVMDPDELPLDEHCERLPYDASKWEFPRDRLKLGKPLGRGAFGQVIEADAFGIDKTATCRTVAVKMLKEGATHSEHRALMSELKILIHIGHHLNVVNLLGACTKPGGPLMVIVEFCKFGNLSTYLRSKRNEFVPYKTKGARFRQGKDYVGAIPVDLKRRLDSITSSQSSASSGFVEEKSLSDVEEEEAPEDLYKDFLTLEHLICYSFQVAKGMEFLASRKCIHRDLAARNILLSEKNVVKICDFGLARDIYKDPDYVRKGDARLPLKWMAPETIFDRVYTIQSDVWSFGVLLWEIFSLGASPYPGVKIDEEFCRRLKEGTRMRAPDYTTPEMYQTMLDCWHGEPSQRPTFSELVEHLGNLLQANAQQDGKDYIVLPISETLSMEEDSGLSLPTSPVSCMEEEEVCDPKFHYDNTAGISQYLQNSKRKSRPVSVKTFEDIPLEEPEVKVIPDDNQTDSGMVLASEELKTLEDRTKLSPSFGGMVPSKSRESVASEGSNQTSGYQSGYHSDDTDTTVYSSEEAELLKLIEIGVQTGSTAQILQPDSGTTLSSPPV
As to the kind of experiment: Kinase inhibition assay (33P transfer), Kdr. The settings on record: read-out: KDR-1. In a few lines:
as §2

T5 sequence (P08581 25-1390): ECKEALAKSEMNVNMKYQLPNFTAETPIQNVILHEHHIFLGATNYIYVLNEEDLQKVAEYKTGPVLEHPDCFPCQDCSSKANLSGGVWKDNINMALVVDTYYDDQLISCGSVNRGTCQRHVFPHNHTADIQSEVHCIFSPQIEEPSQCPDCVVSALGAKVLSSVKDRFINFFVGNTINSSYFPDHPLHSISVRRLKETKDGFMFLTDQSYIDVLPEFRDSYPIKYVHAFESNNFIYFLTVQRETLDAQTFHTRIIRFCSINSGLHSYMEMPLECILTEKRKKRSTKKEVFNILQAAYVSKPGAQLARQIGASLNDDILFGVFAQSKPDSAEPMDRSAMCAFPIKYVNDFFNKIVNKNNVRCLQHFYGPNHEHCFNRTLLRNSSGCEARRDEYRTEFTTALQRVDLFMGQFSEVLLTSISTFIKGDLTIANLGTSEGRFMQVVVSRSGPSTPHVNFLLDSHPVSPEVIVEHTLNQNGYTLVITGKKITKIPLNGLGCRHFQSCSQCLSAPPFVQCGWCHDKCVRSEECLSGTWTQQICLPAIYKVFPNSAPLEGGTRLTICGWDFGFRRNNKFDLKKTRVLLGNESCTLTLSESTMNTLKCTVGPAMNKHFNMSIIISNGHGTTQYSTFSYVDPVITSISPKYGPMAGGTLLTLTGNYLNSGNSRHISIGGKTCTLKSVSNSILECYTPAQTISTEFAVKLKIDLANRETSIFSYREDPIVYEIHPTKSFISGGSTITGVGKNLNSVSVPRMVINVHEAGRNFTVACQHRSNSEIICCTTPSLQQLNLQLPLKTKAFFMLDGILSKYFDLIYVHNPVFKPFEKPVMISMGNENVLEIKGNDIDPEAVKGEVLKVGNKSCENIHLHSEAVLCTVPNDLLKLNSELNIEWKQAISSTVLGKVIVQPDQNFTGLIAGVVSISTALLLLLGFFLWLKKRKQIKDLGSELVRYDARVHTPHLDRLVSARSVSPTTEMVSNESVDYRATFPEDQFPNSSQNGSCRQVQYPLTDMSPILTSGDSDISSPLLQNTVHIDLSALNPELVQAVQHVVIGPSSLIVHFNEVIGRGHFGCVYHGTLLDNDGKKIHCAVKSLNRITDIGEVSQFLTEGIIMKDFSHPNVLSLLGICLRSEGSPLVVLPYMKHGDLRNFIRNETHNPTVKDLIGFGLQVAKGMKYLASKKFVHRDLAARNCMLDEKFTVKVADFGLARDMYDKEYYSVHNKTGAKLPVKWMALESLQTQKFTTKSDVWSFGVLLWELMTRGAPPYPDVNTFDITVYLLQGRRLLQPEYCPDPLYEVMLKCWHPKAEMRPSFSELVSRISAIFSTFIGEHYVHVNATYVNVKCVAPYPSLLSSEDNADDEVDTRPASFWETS

For the molecule `COc1ccc(Nc2ncnc(NCCCN3CCN(C)CC3)n2)cc1OC` [Compound 786], the IC50 in [1], in [2], in [3], in assay [4], in [5] and in assay [6] was over 11.6 µM in each case. Besides, the IC50 in assay [7], in assay [8], in assay [9] and in assay [10] was over 11.6 µM in each case.
As to `CCOC(=O)CNc1ncnc(N2CCCc3cc(C)ccc32)n1` [Compound 761], the IC50 in assay [1], in assay [2], in [3], in [4], in [5] and in assay [6] was over 13.7 µM each time. Besides, the IC50 in assay [7], in [8], in assay [9] and in [10] was over 13.7 µM each time.
Consider `CN(c1cccc(Cl)c1)c1ncnc(NCC2CCCO2)n1` (stereo not drawn) [Compound 739], for which the IC50 in assay [1] is 1.25 to 7.5 µM; in [2], over 14.1 µM; in assay [3], over 14.1 µM; in [4], over 14.1 µM; in assay [5] it was over 14.1 µM; in [6], over 14.1 µM. For the same molecule, the IC50 in [7], in assay [8], in assay [9] and in [10] was over 14.1 µM in each case.
As for `CN(c1cccc(Cl)c1)c1ncnc(NCCOCCO)n1` [Compound 746], the IC50 in assay [1], in assay [2], in assay [3], in assay [4], in [5] and in assay [6] was over 13.9 µM each time. Further, the IC50 in [7], in assay [8], in [9] and in assay [10] was over 13.9 µM in each case.
For the molecule `CN(c1cccc(Cl)c1)c1ncnc(Nc2ccc(F)c(Cl)c2)n1` [Compound 703], the IC50 in assay [1] was under 1.1 µM; in assay [2] it was over 12.4 µM; in assay [3], over 12.4 µM; in [4], over 12.4 µM; in [5] it was over 12.4 µM; in assay [6] it was over 12.4 µM. Moreover, the IC50 is over 12.4 µM in assay [7], over 12.4 µM in assay [8], 9.61 to 12.4 µM in assay [9] and over 12.4 µM in [10].
In the case of `COc1ccc(CNc2ncnc(Nc3ccc4c(cnn4Cc4ccccc4)c3)n2)cc1OC` [Compound 732], the IC50 in assay [1] is 7.49 to 9.62 µM; in assay [2], over 9.62 µM; in assay [3], 7.49 to 9.62 µM; in assay [4], over 9.62 µM; in assay [5], over 9.62 µM; in assay [6] it was over 9.62 µM. Further, the IC50 is over 9.62 µM in [7], 7.49 to 9.62 µM in [8], over 9.62 µM in assay [9] and over 9.62 µM in [10].
On to `Cc1cccc(Nc2ncnc(N(C)c3cccc(Br)c3)n2)c1` [Compound 666], for which the IC50 is under 1.08 µM in assay [1]; over 12.2 µM in assay [2]; over 12.2 µM in assay [3]; 6.48 to 9.45 µM in assay [4]; 6.48 to 9.45 µM in assay [5]; over 12.2 µM in assay [6]. Also, the IC50 was 9.45 to 12.2 µM in assay [7], over 12.2 µM in assay [8], 1.08 to 6.48 µM in assay [9] and over 12.2 µM in [10].
In the case of `COc1cccc(Nc2ncnc(N(C)c3cccc(Cl)c3)n2)c1` [Compound 741], the IC50 is under 1.17 µM in assay [1]; over 13.2 µM in assay [2]; over 13.2 µM in [3]; 7.02 to 10.2 µM in assay [4]; over 13.2 µM in [5]; over 13.2 µM in assay [6]. Also, the IC50 in assay [7] was 7.02 to 10.2 µM; in assay [8], over 13.2 µM; in assay [9], 1.17 to 7.02 µM; in assay [10] it was over 13.2 µM.
Regarding `COc1cc(Nc2ncnc(-n3c(Nc4cccc(F)c4)nc4ccccc43)n2)cc(OC)c1OC` [Compound 1053], the IC50 in [1] is 4.92 to 7.18 µM; in assay [2] it was over 9.23 µM; in assay [3], over 9.23 µM; in assay [4], 0.821 to 4.92 µM; in assay [5], over 9.23 µM; in assay [6], over 9.23 µM. Also, the IC50 in assay [7] was under 0.821 µM; in [8] it was over 9.23 µM; in [9] it was over 9.23 µM; in [10], under 0.821 µM.
As for `COc1cc(CNc2ncnc(N(C)c3cccc(Cl)c3)n2)cc(OC)c1OC` [Compound 747], the IC50 was 5.77 to 8.42 µM in [1]; over 10.8 µM in assay [2]; over 10.8 µM in [3]; over 10.8 µM in [4]; over 10.8 µM in assay [5]; over 10.8 µM in assay [6]. For the same molecule, the IC50 in assay [7], in assay [8], in [9] and in assay [10] was over 10.8 µM throughout.
Take `c1ccc(Cn2ncc3cc(Nc4ncnc(NCC5CCCCC5)n4)ccc32)cc1` [Compound 727]: the IC50 is over 10.9 µM in assay [1]; over 10.9 µM in assay [2]; over 10.9 µM in assay [3]; over 10.9 µM in assay [4]; 8.46 to 10.9 µM in assay [5]; over 10.9 µM in [6]. For the same molecule, the IC50 in [7] was over 10.9 µM; in assay [8] it was 5.8 to 8.46 µM; in [9], over 10.9 µM; in assay [10] it was 8.46 to 10.9 µM.
Take `COc1cc(Nc2ncnc(-n3c(NCc4ccc(C)cc4C)nc4ccccc43)n2)cc(OC)c1OC` [Compound 584]: the IC50 in [1] was 4.69 to 6.84 µM; in assay [2], over 8.8 µM; in assay [3], over 8.8 µM; in assay [4] it was 0.782 to 4.69 µM; in assay [5] it was 6.84 to 8.8 µM; in assay [6], over 8.8 µM. In addition, the IC50 in assay [7] is over 8.8 µM; in [8], over 8.8 µM; in assay [9], 4.69 to 6.84 µM and 0.782 to 4.69 µM; in assay [10] it was 0.782 to 4.69 µM.
